Laboratory results: patent US5284838A, “Use of 2,2-dimethylchroman-3-ol derivatives in the treatment of asthma” (Elf Sanofi, priority 1987, dated 1994)
Read-outs that look alike come from different tables or passages of the source.

Legend:
Isolated Rat Portal Vein = assay: Isolated Rat Portal Vein: inhibition of spontaneous contractile activities; type: cell-based, Male Sprague Dawley rats; details: for IC50: Rattus norvegicus, 0.25 h; for times more active than Product A: relative to Product A, isolated rat portal vein
Description: Male Sprague Dawley rats (250-300 g) are stunned and then bled after their throats have been cut. The portal vein, ligated in situ at two points 15 mm apart, is isolated, cut longitudinally and then mounted vertically in an experimental cell containing a physiological solution, at 37° C., of the following composition (mmol/l): NaCl:137; KCl: 5.4; MgCl2 : 1.05; CaCl2 : 1.8; NaH2 PO4 : 1.2; NAHCO3 : 15.5; glucose: 11.5, into which a mixture of gases containing 95% of oxygen and 5% of carbon dioxide is bubbled.
The vein is subjected to a tension of 500 mg. After a period of stabilization (about 1 h 30 min), the spontaneous contractile activities are recorded with the aid of an isometric sensor. Each measurement is performed successively on 4 preparations.
The results are expressed in the form of the molar concentration which causes a 50 per cent inhibition of the spontaneous contractile activities (IC50).

[1] = tested on: Guinea-pig Papillary Muscle; assay: Guinea-pig Papillary Muscle: ventricular action potential; type: cell-based, Male Albino Charles River guinea-pigs; details: Cavia porcellus, 0.5 h; 36° C., 60 beats per minute, 30 minutes of perfusion per concentration; read-out: Duration of the action potential: IC50 (50 per cent reduction in the duration of the AP)
Description: Male Albino Charles River guinea-pigs (300-400 g) are stunned and then bled after their throats have been cut. The heart is isolated and opened and the right papillary muscle is excised and then kept alive in an experimental cell containing a physiological solution at 36° C. (composition described above).
The preparation is stimulated with the aid of a bipolar electrode connected to a stimulator (frequency=60 beats per minute). The ventricular action potential is measured by the conventional microelectrode method. The characteristic parameters were measured on the action potentials (AP) before and after the introduction of the test product at 3 successive increasing concentrations (30 minutes of perfusion per concentration). The concentration which produces a 50 per cent reduction in the duration of the AP is indicated (IC50).

[2] = tested on: Vigilant Spontaneously Hypertensive Rats (SHR); assay: Antihypertensive Activity on Vigilant Spontaneously Hypertensive Rats (SHR); type: in vivo, male SHR (of the Wistar strain) rats; details: for duration of action compared with Product A: p.o.
Description: The experiment is performed on male SHR (of the Wistar strain) aged between 11 and 12 weeks; under pentobarbital anesthesia, a catheter is implanted in a carotid artery on the day before the experiment. In the experiment, the diastolic pressure (DP) and systolic pressure (SP) of the vigilant animals are recorded continuously 1 hour before and up to 2 hours after administration of the product. The heart rate (HR) is determined from the pulse pressure and recorded continuously for the same time.
The products were administered orally in a volume of 2 ml per 100 g of body weight after suspension in a 5% aqueous solution of gum arabic.

mice = assay: Acute toxicity on mice by oral administration; type: in vivo; details: 1000 mg/kg, 10 mice
Vigilant Dogs = assay: Antiarrhythmic Activity on Vigilant Dogs; type: in vivo; details: orally
Description: The method used is that described by Dupuis et al. (Br. J. Pharmacol., 1976, 58, p. 409), in which an acute infarction is caused by the insertion of a copper spiral into the coronary circulation, with the thorax closed off. The electrocardiogram is measured by telemetry and the extrasystoles are analyzed and counted automatically while the animal is being monitored by an internal television circuit. The products were administered orally to animals presenting at least 50 percent of extrasystoles.

[3] = 37° C., 15 min per concentration, read-out: IC50 of the spontaneous contractile activities of isolated rat portal vein
[4] = unit inferred, read-out: IC50 values equal to or less than (isolated rat portal vein)

**Q.** What does the source list for `CC1(C)Oc2ccc(C#N)cc2[C@@H](n2ccc(Cl)cc2=O)[C@@H]1O` (relative stereo) [SR 45 012]?
**A.** IC50 (Isolated Rat Portal Vein; [3]): 26 nM; IC50 (Isolated Rat Portal Vein; [4]): ≤ 34 nM; times more active than Product A (Isolated Rat Portal Vein): at least 5 times

**Q.** Which IC50 (Isolated Rat Portal Vein; [3]) does the source give for `CC1(C)Oc2ccc(C#N)cc2[C@@H](n2ccc(F)cc2=O)[C@@H]1O` (relative stereo) [SR 45 311, trans-6-Cyano-4-(1,2-dihydro-4-fluoro-2-oxopyrid-1-yl)-2,2-dimethylchroman-3-ol] here?
**A.** Its IC50 is 50 nM.

**Q.** How did the IC50 [1] turn out when `CC1(C)Oc2ccc(C#N)cc2[C@@H](n2nc(O)ccc2=O)[C@@H]1O` (relative stereo) [SR 44 994, trans-6-Cyano-4-(I,6-dihydro-3-hydroxy-6-oxopyridazin-1-yl)-2,2-dimethylchroman-3-ol] was run?
**A.** The IC50 was 4000 nM.

**Q.** What about the IC50 (Isolated Rat Portal Vein; [3]) of the same compound?
**A.** The IC50 was 9 nM.

**Q.** And the IC50 (Isolated Rat Portal Vein; [4])?
**A.** The IC50 was ≤ 34 nM.

**Q.** And the “times more active than Product A” value (Isolated Rat Portal Vein)?
**A.** Its value is “at least 5 times”.

**Q.** And the “Maximum decrease in mean blood pressure (±s.e.)” value (from here on “Maximum decrease”) ([2]; 0.03 mg/kg p.o.)?
**A.** The value was 14 ± 0 mm of mercury.

**Q.** And the “Maximum decrease” value ([2]; 0.10 mg/kg p.o.)?
**A.** Its value is 37 ± 4 mm of mercury.

**Q.** What about the “duration of action compared with Product A” value [2] of the same compound?
**A.** The value was “longer duration of action than Product A”.

**Q.** With `Cc1ccc(=O)n([C@@H]2c3cc(C#N)ccc3OC(C)(C)[C@H]2O)n1` (relative stereo) [SR 45 225, trans-6-Cyano-4-(I,6-dihydro-3-methyl-6-oxopyridazin-1-yl)-2,2-dimethylchroman-3-ol] as the compound, how does the IC50 (Isolated Rat Portal Vein; [3]) read?
**A.** The IC50 was 88 nM.

**Q.** How did the IC50 (Isolated Rat Portal Vein; [3]) turn out when `CC1(C)Oc2ccc(C#N)cc2[C@@H](n2ncccc2=O)[C@@H]1O` (relative stereo) [SR 44 758, trans-6-Cyano-4-(1,6-dihydro-6-oxopyridazin-1-yl)-2,2-dimethylchroman-3-ol] was run?
**A.** Its IC50 is 130 nM.

**Q.** And the “Maximum decrease” value ([2]; 0.03 mg/kg p.o.)?
**A.** The value was 12 ± 2 mm of mercury.

**Q.** And the “Maximum decrease” value ([2]; 0.10 mg/kg p.o.)?
**A.** Its value is 33 ± 5 mm of mercury.

**Q.** For `Cc1cc(=O)n([C@@H]2c3cc(C#N)ccc3OC(C)(C)[C@H]2O)nc1O` (relative stereo) [SR 45 218, trans-6-Cyano-4-(I,6-dihydro-3-hydroxy-4-methyl-6-oxopyridazin-1-yl)-2,2-dimethylchroman-3-ol], which IC50 (Isolated Rat Portal Vein; [3]) is on record?
**A.** Its IC50 is 20 nM.

**Q.** And the IC50 (Isolated Rat Portal Vein; [4])?
**A.** Its IC50 is ≤ 34 nM.

**Q.** And the “times more active than Product A” value (Isolated Rat Portal Vein)?
**A.** Its value is “at least 5 times”.

**Q.** How did the IC50 (Isolated Rat Portal Vein; [3]) turn out when `Cc1ccn([C@@H]2c3cc(C#N)ccc3OC(C)(C)[C@H]2O)c(=O)c1` (relative stereo) [SR 45 135] was run?
**A.** The IC50 was 80 nM.

**Q.** Which IC50 (Isolated Rat Portal Vein; [3]) does the source give for `CC1(C)Oc2ccc(C#N)cc2[C@@H](n2ccncc2=O)[C@@H]1O` (relative stereo) [SR 45 067] here?
**A.** The IC50 was 77 nM.

**Q.** What does the source list for `CC1(C)Oc2ccc(C#N)cc2[C@@H](N2CCCC2=O)[C@@H]1O` (relative stereo) [Product A, trans-6-Cyano-4-(2-oxopyrrolidin-1-yl)-2,2-dimethylchroman-3-ol, reference compound]?
**A.** IC50 [1]: 16000 nM; acute toxicity: survival / death of the animals (mice): all 10 animals died; IC50 (Isolated Rat Portal Vein; [3]): 68 nM; Maximum decrease in mean blood pressure (±s.e.) ([2]; 0.03 mg/kg p.o.): 16 ± 5 mm of mercury; Maximum decrease in mean blood pressure (±s.e.) ([2]; 0.10 mg/kg p.o.): 30 ± 10 mm of mercury

**Q.** For `CC1(C)Oc2ccc(C#N)cc2[C@@H](n2ccc(O)cc2=O)[C@@H]1O` (relative stereo) [SR 44 793, trans-6-Cyano-4-(I,2-dihydro-4-hydroxy-2-oxopyrid-1-yl)-2,2-dimethylchroman-3-ol], which “antiarrhythmic activity (reducing the number of extrasystoles or restoring a sinus rhythm)” value (Vigilant Dogs; between 0.1 and 0.5 mg/kg) is on record?
**A.** Its value is “substantial antiarrhythmic activity”.

**Q.** What about the IC50 [1] of the same compound?
**A.** The IC50 was 2700 nM.

**Q.** What about the IC50 (Isolated Rat Portal Vein; [3]) of the same compound?
**A.** Its IC50 is 34 nM.

**Q.** And the IC50 (Isolated Rat Portal Vein; [4])?
**A.** The IC50 was ≤ 34 nM.

**Q.** And the “times more active than Product A” value (Isolated Rat Portal Vein)?
**A.** Its value is “at least 5 times”.

**Q.** What about the “Maximum decrease” value ([2]; 0.03 mg/kg p.o.) of the same compound?
**A.** The value was 22 ± 2 mm of mercury.

**Q.** And the “Maximum decrease” value ([2]; 0.06 mg/kg p.o.)?
**A.** The value was 26 ± 3 mm of mercury.

**Q.** What about the “Maximum decrease” value ([2]; 0.10 mg/kg p.o.) of the same compound?
**A.** Its value is 50 ± 9 mm of mercury.

**Q.** What about the “duration of action compared with Product A” value [2] of the same compound?
**A.** Its value is “longer duration of action than Product A”.

**Q.** With `Cc1cc(O)nn([C@@H]2c3cc(C#N)ccc3OC(C)(C)[C@H]2O)c1=O` (relative stereo) [SR 45 209, trans-6-Cyano-4-(I,6-dihydro-3-hydroxy-5-methyl-6-oxopyridazin-1-yl)-2,2-dimethylchroman-3-ol] as the compound, how does the IC50 (Isolated Rat Portal Vein; [3]) read?
**A.** Its IC50 is 58 nM.

**Q.** For `CC1(C)Oc2ccc(C#N)cc2[C@@H](n2ccccc2=O)[C@@H]1O` (relative stereo) [SR 44 709, trans-6-Cyano-4-(I,2-dihydro-2-oxopyrid-1-yl)2,2-dimethylchroman-3-ol], which “antiarrhythmic activity (reducing the number of extrasystoles or restoring a sinus rhythm)” value (Vigilant Dogs; 1 mg/kg) is on record?
**A.** The value was “substantial antiarrhythmic activity”.

**Q.** What about the IC50 [1] of the same compound?
**A.** The IC50 was 20000 nM.

**Q.** What about the “acute toxicity: survival / death of the animals” value (mice) of the same compound?
**A.** Its value is “all the animals survived”.

**Q.** And the IC50 (Isolated Rat Portal Vein; [3])?
**A.** Its IC50 is 90 nM.

**Q.** What about the “Maximum decrease” value ([2]; 0.06 mg/kg p.o.) of the same compound?
**A.** The value was 21 ± 5 mm of mercury.

**Q.** And the “Maximum decrease” value ([2]; 0.10 mg/kg p.o.)?
**A.** Its value is 39 ± 12 mm of mercury.
